Experimental data from PubChem BioAssay (NCI).
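Values below derive from 48-hour exposures of cells grown in 96-well plates, with endpoints linearly interpolated between the two concentrations bracketing the appropriate inhibition level. TGI: concentration producing complete growth inhibition.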

What follows are molecules tested on SK-MEL-28 melanoma (assay: inhibition of tumour cell growth, NCI panel, 48 h).
For `CC(Oc1ccccc1Cl)C(=O)NN1C(=O)CC(=O)N(c2ccc(Cl)cc2)C1=S` (configuration not stated), the TGI was over 100 µM.
`CC(C)[Si]1(C(C)C)OCC2OC(n3ccc(=O)[nH]c3=O)C([Se]c3ccccc3)C2O[Si](C(C)C)(C(C)C)O1` (configuration not stated) gave a TGI of 12.5 µM.
Work on `O=C1NCN(c2ccccc2)C12CCN(CC1COc3ccccc3O1)CC2` (configuration not stated) yielded a TGI of over 100 µM.
`O=C1OC([C@H](O)c2cccnc2)c2ccccc21` (some centres not stated) gave a TGI of over 10 µM.
`CC(C)(C)OC(=O)N1CCCC1C(=O)NC(c1ccccc1)c1ccccc1` (configuration not stated) was tested, and the TGI was over 100 µM.
`O=C1Cc2cn[nH]c2-c2ccccc2N1` was tested, and the TGI was over 100 µM.
In the case of `O=CNc1ccccc1OCCOc1ccccc1NC=O`, the TGI is reported as over 100 µM.
`C=CCN1CCC(c2cc(C(=O)OCC)[nH]c2-c2cc(C)no2)C1=O` (configuration not stated) was tested, and the TGI was over 100 µM.
`O=c1[nH][nH]c(=O)c2c1ccc1oc3ccccc3c12` was tested, and the TGI was over 100 µM.
`O=C1CSC(c2ccccc2O)N1c1ccc(-n2c(-c3ccccc3)nc3ccccc3c2=O)cc1` (configuration not stated) showed a TGI of over 100 µM.
`Cc1ccc(C(=O)Oc2ccccc2)cc1N=NN(C)C` gave a TGI of over 100 µM.
With `O=C1NC2(CCNCC2)Oc2ccccc21` the TGI was over 100 µM.
With `Cc1c(/C=N/NC(=S)N2CCCCC2)c(=O)n(-c2ccccc2)n1C` the TGI was over 100 µM.
`CC(C)(C)OC(=O)CCCCCNC(=O)CCCCCNC(=O)CCC(CN(CC(=O)OCc1ccccc1)CC(=O)OCc1ccccc1)N(CC(=O)OCc1ccccc1)CC(=O)OCc1ccccc1` (configuration not stated) was tested, and the TGI was over 100 µM.
Work on `O=[N+]([O-])/C(Cl)=C(/C(Cl)=C(Cl)Cl)N1CCOCC1` yielded a TGI of 34.3 µM.
`CN=c1sc2nc(C#N)c(C#N)nc2n1C` was tested, and the TGI was over 85 µM.
`CC(C)OP(=O)(OC(C)C)C(C)(C)O` showed a TGI of over 100 µM.
With `COC(=O)C(=O)Nc1cc2c3c(c1)Oc1cccc4c1C3(C)c1c(cccc1O2)O4` the TGI was over 100 µM.

The molecules below were run on HOP-62 NSCLC (assay: inhibition of tumour cell growth, NCI panel, 48 h).
For `O=C(Nc1ccccc1)OCCN=C1c2ccccc2CCc2ccccc21`, the TGI was 49.4 µM.
In the case of `COc1cc2cc(C(=O)N3CC(CCl)c4ccc([N+](C)(C)Cc5ccccc5[N+](=O)[O-])cc43)[nH]c2c(OC)c1OC` (configuration not stated), the TGI is reported as 18.1 µM.
For `CC(C)[C@H]1NC(=O)[C@H]2N=C(S[C@H]2C)[C@@H]2CCCN2C(=O)[C@H](Cc2ccccc2)NC(=O)[C@@H]2CSC(=N2)[C@@H](Cc2ccccc2)NC(=O)[C@@H]2CSC1=N2`, the TGI was over 50 µM.
Work on `O=C1Oc2ccccc2C(=O)/C1=C/N1C(=O)CNC1=S` yielded a TGI of over 100 µM.
Work on `CC1=NN(c2nc(N)nc(/C(C#N)=C\c3ccc(-c4ccc([N+](=O)[O-])cc4)o3)n2)C(C)(C)C1` yielded a TGI of 67.5 µM.
`COc1ccc2nc3ccc(OC)cc3c(SCCCl)c2c1` showed a TGI of over 78.3 µM.
For `CC(Oc1ccccc1Cl)C(=O)NN1C(=O)CC(=O)N(c2ccc(Cl)cc2)C1=S` (configuration not stated), the TGI was over 100 µM.
`CC(C)[Si]1(C(C)C)OCC2OC(n3ccc(=O)[nH]c3=O)C([Se]c3ccccc3)C2O[Si](C(C)C)(C(C)C)O1` (configuration not stated) gave a TGI of 25.2 µM.
In the case of `O=C1NCN(c2ccccc2)C12CCN(CC1COc3ccccc3O1)CC2` (configuration not stated), the TGI is reported as 52.8 µM.
`O=C1OC([C@H](O)c2cccnc2)c2ccccc21` (some centres not stated) showed a TGI of over 10 µM.
In the case of `CC(C)(C)OC(=O)N1CCCC1C(=O)NC(c1ccccc1)c1ccccc1` (configuration not stated), the TGI is reported as over 100 µM.
Molecule `O=C1Cc2cn[nH]c2-c2ccccc2N1` has a TGI of over 100 µM.
With `O=CNc1ccccc1OCCOc1ccccc1NC=O` the TGI was over 100 µM.
`C=CCN1CCC(c2cc(C(=O)OCC)[nH]c2-c2cc(C)no2)C1=O` (configuration not stated) was tested, and the TGI was over 100 µM.
`O=c1[nH][nH]c(=O)c2c1ccc1oc3ccccc3c12` was tested, and the TGI was over 100 µM.
For `O=C1CSC(c2ccccc2O)N1c1ccc(-n2c(-c3ccccc3)nc3ccccc3c2=O)cc1` (configuration not stated), the TGI was 77.5 µM.
Work on `Cc1ccc(C(=O)Oc2ccccc2)cc1N=NN(C)C` yielded a TGI of over 100 µM.
In the case of `O=C1NC2(CCNCC2)Oc2ccccc21`, the TGI is reported as over 100 µM.
Molecule `Cc1c(/C=N/NC(=S)N2CCCCC2)c(=O)n(-c2ccccc2)n1C` has a TGI of over 100 µM.
For `CC(C)(C)OC(=O)CCCCCNC(=O)CCCCCNC(=O)CCC(CN(CC(=O)OCc1ccccc1)CC(=O)OCc1ccccc1)N(CC(=O)OCc1ccccc1)CC(=O)OCc1ccccc1` (configuration not stated), the TGI was over 100 µM.
Work on `O=[N+]([O-])/C(Cl)=C(/C(Cl)=C(Cl)Cl)N1CCOCC1` yielded a TGI of 2.5 µM.
`CN=c1sc2nc(C#N)c(C#N)nc2n1C` showed a TGI of 42.1 µM.
`CC(C)OP(=O)(OC(C)C)C(C)(C)O` gave a TGI of over 100 µM.
`COC(=O)C(=O)Nc1cc2c3c(c1)Oc1cccc4c1C3(C)c1c(cccc1O2)O4` was tested, and the TGI was over 100 µM.

The molecules below were run on PC-3 prostate (assay: inhibition of tumour cell growth, NCI panel, 48 h).
Molecule `O=C(Nc1ccccc1)OCCN=C1c2ccccc2CCc2ccccc21` has a TGI of 82.8 µM.
With `COc1cc2cc(C(=O)N3CC(CCl)c4ccc([N+](C)(C)Cc5ccccc5[N+](=O)[O-])cc43)[nH]c2c(OC)c1OC` (configuration not stated) the TGI was 25.9 µM.
`CC(C)[C@H]1NC(=O)[C@H]2N=C(S[C@H]2C)[C@@H]2CCCN2C(=O)[C@H](Cc2ccccc2)NC(=O)[C@@H]2CSC(=N2)[C@@H](Cc2ccccc2)NC(=O)[C@@H]2CSC1=N2` was tested, and the TGI was over 50 µM.
In the case of `O=C1Oc2ccccc2C(=O)/C1=C/N1C(=O)CNC1=S`, the TGI is reported as over 100 µM.
`CC1=NN(c2nc(N)nc(/C(C#N)=C\c3ccc(-c4ccc([N+](=O)[O-])cc4)o3)n2)C(C)(C)C1` showed a TGI of over 100 µM.
In the case of `COc1ccc2nc3ccc(OC)cc3c(SCCCl)c2c1`, the TGI is reported as over 100 µM.
`CC(Oc1ccccc1Cl)C(=O)NN1C(=O)CC(=O)N(c2ccc(Cl)cc2)C1=S` (configuration not stated) was tested, and the TGI was over 100 µM.
Molecule `CC(C)[Si]1(C(C)C)OCC2OC(n3ccc(=O)[nH]c3=O)C([Se]c3ccccc3)C2O[Si](C(C)C)(C(C)C)O1` (configuration not stated) has a TGI of 11.9 µM.
Molecule `O=C1NCN(c2ccccc2)C12CCN(CC1COc3ccccc3O1)CC2` (configuration not stated) has a TGI of over 100 µM.
`O=C1OC([C@H](O)c2cccnc2)c2ccccc21` (some centres not stated) was tested, and the TGI was over 10 µM.
Work on `CC(C)(C)OC(=O)N1CCCC1C(=O)NC(c1ccccc1)c1ccccc1` (configuration not stated) yielded a TGI of over 100 µM.
With `O=C1Cc2cn[nH]c2-c2ccccc2N1` the TGI was over 100 µM.
`O=CNc1ccccc1OCCOc1ccccc1NC=O` gave a TGI of over 100 µM.
For `C=CCN1CCC(c2cc(C(=O)OCC)[nH]c2-c2cc(C)no2)C1=O` (configuration not stated), the TGI was over 100 µM.
For `O=c1[nH][nH]c(=O)c2c1ccc1oc3ccccc3c12`, the TGI was over 100 µM.
